Results from patent US8293731B2, “HIV integrase inhibitors” (Merck Sharp + Dohme Corp., priority 2005, dated 2012).

Tested on: HIV
Test: Assay for inhibition of HIV replication (spread assay): acute HIV infection of T-lymphoid cells
Type: cell-based
Conditions: Human immunodeficiency virus 1, 'less than about'
Experimental: Assays for the inhibition of acute HIV infection of T-lymphoid cells were conducted in accordance with Vacca, J. P. et al., Proc. Natl. Acad. Set USA 1994, 91: 4096. […] For example, the compounds of Examples 1 to 64 were tested in this assay and found to have IC95 values of less than about 10 micromolar.

| Compound | IC95 [µM] |
| --- | --- |
| O=C1OCCCCn2c1c1c(c(O)c2=O)C(=O)N(Cc2ccc(F)c(Cl)c2)CC1 [Example 61, 11-(3-Chloro-4-fluorobenzyl)-9-hydroxy-3,4,5,6,12,13-hexahydro-[1,4]oxazocino[3,4-a]-2,6-naphthyridine-1,8,10(11H)-trione] | < 10 |
| O=C1OCCCn2c1c1c(c(O)c2=O)C(=O)N(Cc2ccc(F)c(Cl)c2)CC1 [Example 62, 10-(3-Chloro-4-fluorobenzyl)-8-hydroxy-4,5,11,12-tetrahydro-3H-[1,4]oxazepino[3,4-a]-2,6-naphthyridine-1,7,9(10H)-trione] | < 10 |
| CC(=O)OCC1Cn2c(c3c(c(O)c2=O)C(=O)N(Cc2ccc(F)c(Cl)c2)CC3)C(=O)O1 (stereo not shown) [Example 63, 9-(3-Chloro-4-fluorobenzyl)-7-hydroxy-3-(acetyloxymethyl)-3,4,10,11-tetrahydro[1,4]oxazino[3,4-a]-2,6-naphthyridine-1,6,8(9H)-trione] | < 10 |
| O=C1OC(CO)Cn2c1c1c(c(O)c2=O)C(=O)N(Cc2ccc(F)c(Cl)c2)CC1 (stereo not shown) [Example 64, 9-(3-Chloro-4-fluorobenzyl)-7-hydroxy-3-(hydroxymethyl)-3,4,10,11-tetrahydro[1,4]oxazino[3,4-a]-2,6-naphthyridine-1,6,8(9H)trione] | < 10 |
